{"source": "patent US20210052703A1", "about": "(SHANGHAI BENEMAE PHARMACEUTICAL CORPORATION, priority 2018, published 2021)", "key": {"[1]": {"test_system": "Sprague-Dawley (SD) rats", "experiment": "stomach emptying and carbon powder propelling in SD rats (Example 1)", "format": "in vivo, rat", "conditions": "X ± SE", "procedure": "Each group had 10 rats, half male and half female. The tails of the rats were labeled as follows:\nThe dose selection is calculated based on human dose. The clinical human dose is estimated to be about 0.4 mg/injection, one injection per day, which corresponds to 36 μg/kg rat dose, calculated based on the body surface area. Accordingly, the rats were tested at a medium dose of 30 μg/kg, a low dose at 50% of the medium dose, and a high dose at 200% of the medium dose. The clinical human dose of liraglutide for treating obesity is 3.0 mg/injection, one injection per day, which corresponds to 270 μg/kg rat dose, calculated based on the body surface area.\nThe positive control was liraglutide injectable formulation, which was stored in dark, sealed condition. The rats were raised and kept at the Laboratory Animal Center, Shanghai University of Traditional Chinese Medicine.\nThe injectable formulations were made and diluted at the time of experiment, as follows:\nThe rats were fasted for 16 hours with only water provided. Before being divided into groups, the rats were weighed and weights were recorded (cage numbering and tail labeling). Based on the body weight, the rats were randomly divided into 5 groups, 10 in each group, half male and half female.\nThe rats were administered with appropriate amounts of Beinaglutide or liraglutide based on their body weights by subcutaneous injection. Female rats were injected after male rats, in the order of their group numbers: 101, 201, 301, 401, 501, 102, 202, 302, 402, 502, etc. The formulations were injected to the rats by lifting the skin in the back, placing the needle of the syringe subcutaneously and injecting. When retrieving the needle, the site of injection was pressed with hand to avoid leakage of the formulation. The amount of injection is about 0.1 ml/100 g body weight."}, "[2]": {"experiment": "body weight, food intake and body composition in diet-induced obesity cynomolgus monkeys (Example 4)", "conditions": "both, cynomolgus monkey, in vivo, sc", "method": "(§1) The monkeys are divided into two groups based on age, sex, body weight and BMI, each group having one male and one female.\n(§2) The study included three periods: baseline period (the first week), treatment period (the second week through the seventh week), and recovering period (the eighth week). After the monkeys adapted to the meal time for at least 30 days, the body weight, BMI, and body composition of each animal was determined at day 7 of the first baseline period.\n(§3) Group 2 animals were administered three times a day at a dose of 10 μg/kg each time during week 2, three times a day at a dose of 20 μg/kg each time during week 3, and three times a day at a dose of 40 μg/kg each time during the first three days of week 4.\n(§4) The dose for Group 1 animals during week 5 through week 7 was determined based on the dose given to Group 2 animals during week 2 through week 4. Group 1 animals were administered twice a day at a dose of 10 μg/kg each time during week 5, twice a day at a dose of 20 μg/kg each time during week 6, and twice a day at a dose of 20 μg/kg each time during week 7 (same dose as week 6). During the 6-week treatment period, the body weight and crown-rump height of each animal were measured at the end of each week. The body fat content was measured at week 4 and week 7. No administration was given during week 8.\n(§5) The body weight was measured once a week, and crown-rump height was measured at the end of week 1, week 4, and week 7 when Dual-Energy X-ray Absorptiometry (DEXA) scan was taken. The animals were anesthetized by intramuscular administration of 0.02 m/kg Shumianning. While resting on one side, the animals were measured from the top of the head to the bottom of tail as the crown-rump height. BMI was calculated using the formula: BMI=body weight (kg)/crown-rump height (m)^2. DEXA scan was conducted while the animals were anesthetized and body compositions were analyzed based on DEXA scan."}, "[3]": {"test_system": "diet-induced obesity cynomolgus monkeys", "experiment": "body weight, food intake and body composition in diet-induced obesity cynomolgus monkeys (Example 4)", "method": "as §1, §2, §3, §4, §5"}, "[4]": {"conditions": "female rats, Beinaglutide 15 μg/kg subcutaneous"}, "[5]": {"conditions": "female rats, Beinaglutide 30 μg/kg subcutaneous"}, "[6]": {"conditions": "female rats, Beinaglutide 60 μg/kg subcutaneous"}, "[7]": {"conditions": "male rats, Beinaglutide 15 μg/kg subcutaneous"}, "[8]": {"conditions": "male rats, Beinaglutide 30 μg/kg subcutaneous"}, "[9]": {"conditions": "male rats, Beinaglutide 60 μg/kg subcutaneous"}}}
{"smiles": "CC[C@H](C)[C@H](NC(=O)[C@H](Cc1ccccc1)NC(=O)[C@H](CCC(=O)O)NC(=O)[C@H](CCCCN)NC(=O)[C@H](C)NC(=O)[C@H](C)NC(=O)[C@H](CCC(N)=O)NC(=O)CNC(=O)[C@H](CCC(=O)O)NC(=O)[C@H](CC(C)C)NC(=O)[C@H](Cc1ccc(O)cc1)NC(=O)[C@H](CO)NC(=O)[C@H](CO)NC(=O)[C@@H](NC(=O)[C@H](CC(=O)O)NC(=O)[C@H](CO)NC(=O)[C@@H](NC(=O)[C@H](Cc1ccccc1)NC(=O)[C@@H](NC(=O)CNC(=O)[C@H](CCC(=O)O)NC(=O)[C@H](C)NC(=O)[C@@H](N)Cc1cnc[nH]1)[C@@H](C)O)[C@@H](C)O)C(C)C)C(=O)N[C@@H](C)C(=O)N[C@@H](Cc1c[nH]c2ccccc12)C(=O)N[C@@H](CC(C)C)C(=O)N[C@H](C(=O)N[C@@H](CCCCN)C(=O)NCC(=O)N[C@@H](CCCNC(=N)N)C(=O)O)C(C)C", "note": "[Beinaglutide]", "values": [{"measurement": "% of Gastric Remains", "setting": "[1]; [4]", "value": "96.81 ± 11.61", "unit": "%"}, {"measurement": "Gross Weight of Stomach", "setting": "[1]; [4]", "value": "3.10 ± 0.22", "unit": "g"}, {"measurement": "Propelling Distance of Carbon Powder", "setting": "[1]; [4]", "value": "41.96 ± 5.30", "unit": "cm"}, {"measurement": "Propelling Rate of Carbon Powder", "setting": "[1]; [4]", "value": "46.97 ± 5.54", "unit": "%"}, {"measurement": "% of Gastric Remains", "setting": "[1]; [5]", "value": "132.66 ± 16.34", "unit": "%"}, {"measurement": "Gross Weight of Stomach", "setting": "[1]; [5]", "value": "3.78 ± 0.35", "unit": "g"}, {"measurement": "Propelling Distance of Carbon Powder", "setting": "[1]; [5]", "value": "30.58 ± 3.66", "unit": "cm"}, {"measurement": "Propelling Rate of Carbon Powder", "setting": "[1]; [5]", "value": "33.88 ± 3.98", "unit": "%"}, {"measurement": "% of Gastric Remains", "setting": "[1]; [6]", "value": "141.53 ± 7.18", "unit": "%"}, {"measurement": "Gross Weight of Stomach", "setting": "[1]; [6]", "value": "3.90 ± 0.15", "unit": "g"}, {"measurement": "Propelling Distance of Carbon Powder", "setting": "[1]; [6]", "value": "5.40 ± 1.84", "unit": "cm"}, {"measurement": "Propelling Rate of Carbon Powder", "setting": "[1]; [6]", "value": "5.94 ± 1.99", "unit": "%"}, {"measurement": "% of Gastric Remains", "setting": "[1]; [7]", "value": "44.14 ± 17.18", "unit": "%"}, {"measurement": "Gross Weight of Stomach", "setting": "[1]; [7]", "value": "2.86 ± 0.52", "unit": "g"}, {"measurement": "Propelling Distance of Carbon Powder", "setting": "[1]; [7]", "value": "64.22 ± 3.84", "unit": "cm"}, {"measurement": "Propelling Rate of Carbon Powder", "setting": "[1]; [7]", "value": "61.80 ± 4.14", "unit": "%"}, {"measurement": "% of Gastric Remains", "setting": "[1]; [8]", "value": "54.92 ± 14.32", "unit": "%"}, {"measurement": "Gross Weight of Stomach", "setting": "[1]; [8]", "value": "3.08 ± 0.48", "unit": "g"}, {"measurement": "Propelling Distance of Carbon Powder", "setting": "[1]; [8]", "value": "34.40 ± 5.91", "unit": "cm"}, {"measurement": "Propelling Rate of Carbon Powder", "setting": "[1]; [8]", "value": "35.46 ± 6.15", "unit": "%"}, {"measurement": "% of Gastric Remains", "setting": "[1]; [9]", "value": "128.70 ± 14.23", "unit": "%"}, {"measurement": "Gross Weight of Stomach", "setting": "[1]; [9]", "value": "5.36 ± 0.52", "unit": "g"}, {"measurement": "Propelling Distance of Carbon Powder", "setting": "[1]; [9]", "value": "11.90 ± 6.38", "unit": "cm"}, {"measurement": "Propelling Rate of Carbon Powder", "setting": "[1]; [9]", "value": "12.28 ± 6.69", "unit": "%"}, {"measurement": "MTD at 504 h", "setting": "[2]", "value": "0.02 to 0.04", "unit": "mg/kg"}, {"measurement": "body fat content", "setting": "[3]; Group 1, end of week 7, compared to baseline", "value": "decrease in body fat content"}, {"measurement": "body fat content", "setting": "[3]; Group 2, end of week 4, compared to baseline", "value": "significant decrease in body fat content"}, {"measurement": "signs of anorexia", "setting": "[3]; Group 2, 40 μg/kg three times a day, first three days of week 4", "value": "severe signs of anorexia"}, {"measurement": "Body Weight", "setting": "[3]; animal F1 (female, Group 1), Week 5, 10 μg/kg twice a day, Week 4 before treatment 5.96", "value": 5.92, "unit": "kg"}, {"measurement": "BMI", "setting": "[3]; animal F1, Week 5, 10 μg/kg twice a day, Week 4 before treatment 41", "value": 39, "unit": "kg/m^2"}, {"measurement": "Body Weight", "setting": "[3]; animal F1, Week 6, 20 μg/kg twice a day, Week 4 before treatment 5.96", "value": 5.94, "unit": "kg"}, {"measurement": "BMI", "setting": "[3]; animal F1, Week 6, 20 μg/kg twice a day, Week 4 before treatment 41", "value": 39, "unit": "kg/m^2"}, {"measurement": "Body Weight", "setting": "[3]; animal F1, Week 7, 20 μg/kg twice a day, Week 4 before treatment 5.96", "value": 5.84, "unit": "kg"}, {"measurement": "BMI", "setting": "[3]; animal F1, Week 7, 20 μg/kg twice a day, Week 4 before treatment 41", "value": 38, "unit": "kg/m^2"}, {"measurement": "Fat Content (DEXA)", "setting": "[3]; animal F1, Week 7, after Beinaglutide weeks 5-7, Week 4 1.98", "value": 1.81, "unit": "kg"}, {"measurement": "Lean Mass (DEXA)", "setting": "[3]; animal F1, Week 7, after Beinaglutide weeks 5-7, Week 4 4.09", "value": 3.98, "unit": "kg"}, {"measurement": "Body Fat Percentage", "setting": "[3]; animal F1, Week 7, after Beinaglutide weeks 5-7, Week 4 33.2", "value": 31.0, "unit": "%"}, {"measurement": "Body Weight", "setting": "[3]; animal F2 (female, Group 2), Week 2, 10 μg/kg three times a day, Week 1 baseline 6.18", "value": 5.96, "unit": "kg"}, {"measurement": "Body Weight", "setting": "[3]; animal F2, Week 3, 20 μg/kg three times a day, Week 1 baseline 6.18", "value": 5.76, "unit": "kg"}, {"measurement": "Body Weight", "setting": "[3]; animal F2, Week 4, 40/20 μg/kg three times a day, Week 1 baseline 6.18", "value": 5.56, "unit": "kg"}, {"measurement": "BMI", "setting": "[3]; animal F2, Week 4, 40/20 μg/kg three times a day, Week 1 baseline 41", "value": 37, "unit": "kg/m^2"}, {"measurement": "Fat Content (DEXA)", "setting": "[3]; animal F2, Week 4, after Beinaglutide weeks 2-4, baseline 2.97", "value": 2.71, "unit": "kg"}, {"measurement": "Lean Mass (DEXA)", "setting": "[3]; animal F2, Week 4, after Beinaglutide weeks 2-4, baseline 3.17", "value": 2.89, "unit": "kg"}, {"measurement": "Body Fat Percentage", "setting": "[3]; animal F2, Week 4, after Beinaglutide weeks 2-4, baseline 48.1", "value": 48.7, "unit": "%"}, {"measurement": "Body Weight", "setting": "[3]; animal M1 (male, Group 1), Week 5, 10 μg/kg twice a day, Week 4 before treatment 11.20", "value": 10.90, "unit": "kg"}, {"measurement": "BMI", "setting": "[3]; animal M1, Week 5, 10 μg/kg twice a day, Week 4 before treatment 51", "value": 49, "unit": "kg/m^2"}, {"measurement": "Body Weight", "setting": "[3]; animal M1, Week 6, 20 μg/kg twice a day, Week 4 before treatment 11.20", "value": 10.44, "unit": "kg"}, {"measurement": "BMI", "setting": "[3]; animal M1, Week 6, 20 μg/kg twice a day, Week 4 before treatment 51", "value": 47, "unit": "kg/m^2"}, {"measurement": "Body Weight", "setting": "[3]; animal M1, Week 7, 20 μg/kg twice a day, Week 4 before treatment 11.20", "value": 10.26, "unit": "kg"}, {"measurement": "BMI", "setting": "[3]; animal M1, Week 7, 20 μg/kg twice a day, Week 4 before treatment 51", "value": 46, "unit": "kg/m^2"}, {"measurement": "Fat Content (DEXA)", "setting": "[3]; animal M1, Week 7, after Beinaglutide weeks 5-7, Week 4 3.66", "value": 3.15, "unit": "kg"}, {"measurement": "Lean Mass (DEXA)", "setting": "[3]; animal M1, Week 7, after Beinaglutide weeks 5-7, Week 4 7.35", "value": 6.92, "unit": "kg"}, {"measurement": "Body Fat Percentage", "setting": "[3]; animal M1, Week 7, after Beinaglutide weeks 5-7, Week 4 32.7", "value": 30.7, "unit": "%"}, {"measurement": "Body Weight", "setting": "[3]; animal M2 (male, Group 2), Week 2, 10 μg/kg three times a day, Week 1 baseline 10.52", "value": 10.30, "unit": "kg"}, {"measurement": "BMI", "setting": "[3]; animal M2, Week 2, 10 μg/kg three times a day, Week 1 baseline 52", "value": 51, "unit": "kg/m^2"}, {"measurement": "Body Weight", "setting": "[3]; animal M2, Week 3, 20 μg/kg three times a day, Week 1 baseline 10.52", "value": 10.00, "unit": "kg"}, {"measurement": "Body Weight", "setting": "[3]; animal M2, Week 4, 40/20 μg/kg three times a day, Week 1 baseline 10.52", "value": 9.70, "unit": "kg"}, {"measurement": "BMI", "setting": "[3]; animal M2, Week 4, 40/20 μg/kg three times a day, Week 1 baseline 52", "value": 48, "unit": "kg/m^2"}, {"measurement": "Fat Content (DEXA)", "setting": "[3]; animal M2, Week 4, after Beinaglutide weeks 2-4, baseline 3.49", "value": 2.88, "unit": "kg"}, {"measurement": "Lean Mass (DEXA)", "setting": "[3]; animal M2, Week 4, after Beinaglutide weeks 2-4, baseline 6.88", "value": 6.59, "unit": "kg"}, {"measurement": "Body Fat Percentage", "setting": "[3]; animal M2, Week 4, after Beinaglutide weeks 2-4, baseline 33.2", "value": 29.7, "unit": "%"}, {"measurement": "body weight after three-week treatment", "setting": "[3]; compared to baseline period, n=4, p<0.05", "value": "significant weight loss"}, {"measurement": "weekly food/calories intake", "setting": "[3]; during Beinaglutide treatment period compared to before treatment, p<0.05", "value": "significantly decreased"}, {"measurement": "BMI after three weeks of treatment", "setting": "[3]; two groups of animals", "value": "decreased"}]}
